Consider 34 compounds from PMC8119466, “A screen of FDA-approved drugs identifies inhibitors of protein tyrosine phosphatase 4A3 (PTP4A3 or PRL-3)” (Scientific Reports, 2021).

For one data set, the target named is T1, recombinant PRL-2 (Homo sapiens, UniProt Q12974).
T1 construct: 6xHis (N, cleaved yes); made in house; host or cells: E. coli One Shot BL21 Star
T1 sequence (Q12974 1-167): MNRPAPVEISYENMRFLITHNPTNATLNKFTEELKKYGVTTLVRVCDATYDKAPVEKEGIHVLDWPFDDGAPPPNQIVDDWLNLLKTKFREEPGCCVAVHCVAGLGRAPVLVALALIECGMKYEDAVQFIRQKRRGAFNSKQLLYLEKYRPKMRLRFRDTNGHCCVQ
Kind of data set: In vitro phosphatase assay (DiFMUP hydrolysis), PRL-2.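 Note: PRL-2 activity read as DiFMUP hydrolysis after 20 min at room temperature with drug, enzyme first pre-reduced at 4 °C for 20 min.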 It is filed as biochemical.

A further data set concerns the target T2, recombinant PRL-3 (Homo sapiens, UniProt O75365).
T2 construct: 6xHis (N, cleaved yes); made in house; host or cells: E. coli One Shot BL21 Star
Kind of data set: In vitro phosphatase assay (DiFMUP hydrolysis), PRL-3. The format is biochemical.

The mark [1] stands for this setting: FDA-approved drug screen, compared to DMSO.
Setting [2] is: FDA-approved drug screen, activity compared to DMSO.

Where a name gives a salt, the structure may show the parent alone. Read-outs that look alike come from different tables or passages of the source.

T2 sequence (O75365 whole entry): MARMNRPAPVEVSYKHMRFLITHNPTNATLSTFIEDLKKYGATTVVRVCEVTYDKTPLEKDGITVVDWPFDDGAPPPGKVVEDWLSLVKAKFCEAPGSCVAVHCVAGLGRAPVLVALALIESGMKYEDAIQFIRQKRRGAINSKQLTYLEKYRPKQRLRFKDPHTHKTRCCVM

For the compound `FC(F)(F)c1ccc(/C=C/c2nc(COc3ccc(CCCCn4ccnn4)cc3)co2)cc1` [Mubritinib (TAK 165)], on recombinant PRL-2, the “% Phosphatase Activity (compared to DMSO) PRL-2” value is on record as 114%. Moreover, at recombinant PRL-3, the “% Phosphatase Activity (compared to DMSO) PRL-3” value turned out to be 101%.

Take `CN1CCC(=C2c3ccccc3C=Cc3ccccc32)CC1` [Cyproheptadine HCl]: the “% Phosphatase Activity (compared to DMSO) PRL-2” value on recombinant PRL-2 (setting [1]) was found to be 112%. At recombinant PRL-3 (setting [1]), the “% Phosphatase Activity (compared to DMSO) PRL-3” value is 93%.

Regarding Bleomycin Sulfate, the “% Phosphatase Activity (compared to DMSO) PRL-2” value at recombinant PRL-2 (setting [1]) stood at 100%. Further, the “% Phosphatase Activity (compared to DMSO) PRL-3” value on recombinant PRL-3 (setting [1]) stood at 64%.

For the compound `CN(C/C=C/C#CC(C)(C)C)Cc1cccc2ccccc12` [Terbinafine], at recombinant PRL-2 (setting [2]), the “% Phosphatase Activity (compared to DMSO) PRL-2” value is 122%. Also, the “% Phosphatase Activity (compared to DMSO) PRL-3” value on recombinant PRL-3 (setting [2]) amounted to 84%.

Consider `O=C(O)c1ccccc1` [Benzoic Acid], for which the “% Phosphatase Activity (compared to DMSO) PRL-2” value on recombinant PRL-2 (setting [1]) is 101%. The “% Phosphatase Activity (compared to DMSO) PRL-3” value at recombinant PRL-3 (setting [1]) is reported as 76%.

In the case of `CC1(C)S[C@@H]2[C@H](NC(=O)C(C(=O)O)c3ccccc3)C(=O)N2[C@H]1C(=O)O` (stereo partly shown) [Carbenicillin disodium], the “% Phosphatase Activity (compared to DMSO) PRL-2” value at recombinant PRL-2 (setting [1]) came out at 101%. Also, the “% Phosphatase Activity (compared to DMSO) PRL-3” value at recombinant PRL-3 (setting [1]) came out at 87%.

With L-Adrenaline, the “% Phosphatase Activity (compared to DMSO) PRL-2” value on recombinant PRL-2 stood at 98%. For the same compound, on recombinant PRL-3, the “% Phosphatase Activity (compared to DMSO) PRL-3” value worked out at 71%.

For `Cl.O=C(O)/C=C/c1ccc(Cn2ccnc2)cc1` [Ozagrel HCl], the “% Phosphatase Activity (compared to DMSO) PRL-2” value at recombinant PRL-2 (setting [1]) is 120%. The “% Phosphatase Activity (compared to DMSO) PRL-3” value on recombinant PRL-3 (setting [1]) was 81%.

With `OC(Cn1cncn1)(Cn1cncn1)c1ccc(F)cc1F` [Fluconazole], on recombinant PRL-2 (setting [1]), the “% Phosphatase Activity (compared to DMSO) PRL-2” value came to 97%. The “% Phosphatase Activity (compared to DMSO) PRL-3” value at recombinant PRL-3 (setting [1]) amounted to 76%.

As for `CN(C)CCC(c1ccc(Cl)cc1)c1ccccn1` (stereo not shown) [Chlorpheniramine Maleate], the “% Phosphatase Activity (compared to DMSO) PRL-2” value at recombinant PRL-2 (setting [1]) was determined as 103%. Moreover, the “% Phosphatase Activity (compared to DMSO) PRL-3” value at recombinant PRL-3 (setting [1]) amounted to 104%.

Regarding `CN(C)CCCN1c2ccccc2Sc2ccc(Cl)cc21` [Chlorpromazine HCl], at recombinant PRL-2 (setting [1]), the “% Phosphatase Activity (compared to DMSO) PRL-2” value amounted to 109%. Besides, the “% Phosphatase Activity (compared to DMSO) PRL-3” value at recombinant PRL-3 (setting [1]) was 81%.

For the compound `COc1cc2nccc(Oc3ccc(NC(=O)C4(C(=O)Nc5ccc(F)cc5)CC4)cc3)c2cc1OC` [Cabozantinib (XL184, BMS-907351)], the “% Phosphatase Activity (compared to DMSO) PRL-2” value at recombinant PRL-2 (setting [1]) stood at 96%. Also, the “% Phosphatase Activity (compared to DMSO) PRL-3” value at recombinant PRL-3 (setting [1]) was found to be 75%.

For `COc1cc(OC)c(C(=O)CCCN2CCCC2)c(OC)c1.Cl` [Buflomedil HCl], on recombinant PRL-2 (setting [1]), the “% Phosphatase Activity (compared to DMSO) PRL-2” value turned out to be 118%. Besides, the “% Phosphatase Activity (compared to DMSO) PRL-3” value on recombinant PRL-3 (setting [1]) is given as 87%.

As to `Nc1ccc(S(N)(=O)=O)cc1` [Sulfanilamide], at recombinant PRL-2 (setting [2]), the “% Phosphatase Activity (compared to DMSO) PRL-2” value is on record as 92%. Further, the “% Phosphatase Activity (compared to DMSO) PRL-3” value at recombinant PRL-3 (setting [2]) is reported as 77%.

In the case of `C[C@@H](Oc1cc(-c2cnn(C3CCNCC3)c2)cnc1N)c1c(Cl)ccc(F)c1Cl` [Crizotinib (PF-02341066)], the “% Phosphatase Activity (compared to DMSO) PRL-2” value at recombinant PRL-2 (setting [1]) is recorded as 119%. Further, the “% Phosphatase Activity (compared to DMSO) PRL-3” value at recombinant PRL-3 (setting [1]) was found to be 81%.

On to `CC1(C)CCC(CN2CCN(c3ccc(C(=O)NS(=O)(=O)c4ccc(NCC5CCOCC5)c([N+](=O)[O-])c4)c(Oc4cnc5[nH]ccc5c4)c3)CC2)=C(c2ccc(Cl)cc2)C1` [ABT-199, reference compound], for which the “selectivity in inhibiting PRL-2 over other PRLs” value on recombinant PRL-2 (drug 40 µM) is “demonstrated selectivity in inhibiting PRL-2”.

Turning to `C[C@@H]1C[C@H]2[C@@H]3CCC4=CC(=O)C=C[C@]4(C)[C@@]3(F)[C@@H](O)C[C@]2(C)[C@@]1(O)C(=O)CO` [Dexamethasone, reference compound], on recombinant PRL-3 (PRL-1, PRL-2, PRL-3 for research-grade inhibitors, PRL-3 for Dexamethasone), the “effect on PRL phosphatase activity (DiFMUP hydrolysis), in words” value is given as “no effect on PRL-3 phosphatase activity”.

Take `CN1[C@@H]2CC[C@H]1C[C@@H](OC(=O)c1c[nH]c3ccccc13)C2` [Tropisetron]: at recombinant PRL-2 (setting [2]), the “% Phosphatase Activity (compared to DMSO) PRL-2” value was found to be 100%. The “% Phosphatase Activity (compared to DMSO) PRL-3” value at recombinant PRL-3 (setting [2]) is 93%.

Turning to `Cc1ccc([C@@H]2O[C@H](CO)[C@@H](O)[C@H](O)[C@H]2O)cc1Cc1ccc(-c2ccc(F)cc2)s1` [Canagliflozin], at recombinant PRL-2 (setting [1]), the “% Phosphatase Activity (compared to DMSO) PRL-2” value stood at 106%. The “% Phosphatase Activity (compared to DMSO) PRL-3” value at recombinant PRL-3 (setting [1]) stood at 90%.

With `CC1(C)S[C@@H]2[C@H](NC(=O)[C@H](N)c3ccc(O)cc3)C(=O)N2[C@H]1C(=O)O` [Amoxicillin], the “% Phosphatase Activity (compared to DMSO) PRL-2” value at recombinant PRL-2 (setting [1]) amounted to 150%. At recombinant PRL-3 (setting [1]), the “% Phosphatase Activity (compared to DMSO) PRL-3” value was determined as 106%.

Turning to `C=C1CC[C@@]2(O)[C@H]3Cc4ccc(O)c5c4[C@@]2(CCN3CC2CC2)[C@H]1O5` [Nalmefene HCl], the “% Phosphatase Activity (compared to DMSO) PRL-2” value on recombinant PRL-2 (setting [1]) worked out at 102%. The “% Phosphatase Activity (compared to DMSO) PRL-3” value at recombinant PRL-3 (setting [1]) is on record as 95%.

For the compound `CN(CCOc1ccc(NS(C)(=O)=O)cc1)CCc1ccc(NS(C)(=O)=O)cc1` [Dofetilide], the “% Phosphatase Activity (compared to DMSO) PRL-2” value on recombinant PRL-2 (setting [1]) was determined as 88%. Further, at recombinant PRL-3 (setting [1]), the “% Phosphatase Activity (compared to DMSO) PRL-3” value worked out at 82%.

On to `COc1cc2nccc(Oc3ccc(NC(=O)C4(C(=O)Nc5ccc(F)cc5)CC4)cc3)c2cc1OC.O=C(O)C[C@H](O)C(=O)O` [Cabozantinib malate (XL184)], for which the “% Phosphatase Activity (compared to DMSO) PRL-2” value on recombinant PRL-2 (setting [1]) amounted to 115%. Also, the “% Phosphatase Activity (compared to DMSO) PRL-3” value on recombinant PRL-3 (setting [1]) turned out to be 96%.

`CC[C@@H](C(N)=O)N1CCCC1=O` [Levetiracetam]: on recombinant PRL-2 (setting [1]), the “% Phosphatase Activity (compared to DMSO) PRL-2” value came out at 90%. For the same compound, the “% Phosphatase Activity (compared to DMSO) PRL-3” value at recombinant PRL-3 (setting [1]) came out at 71%.

`C#C[C@]1(O)CC[C@H]2[C@@H]3CCc4cc(OC)ccc4[C@H]3CC[C@@]21C` [Mestranol]: the “% Phosphatase Activity (compared to DMSO) PRL-2” value on recombinant PRL-2 (setting [1]) came to 99%. The “% Phosphatase Activity (compared to DMSO) PRL-3” value at recombinant PRL-3 (setting [1]) was found to be 77%.

On to `COC(=O)C1=C(C)NC(C)=C(C(=O)OCCN2CCN(C(c3ccccc3)c3ccccc3)CC2)C1c1cccc([N+](=O)[O-])c1` (stereo not shown) [Manidipine], for which, on recombinant PRL-2 (setting [1]), the “% Phosphatase Activity (compared to DMSO) PRL-2” value was found to be 93%. Besides, the “% Phosphatase Activity (compared to DMSO) PRL-3” value at recombinant PRL-3 (setting [1]) is listed as 77%.

With `CC[C@H]1OC(=O)[C@H](C)[C@@H](O[C@H]2C[C@@](C)(OC)[C@@H](O)[C@H](C)O2)[C@H](C)[C@@H](O[C@@H]2O[C@H](C)C[C@H](N(C)C)[C@H]2O)[C@](C)(OC)C[C@@H](C)C(=O)[C@H](C)[C@@H](O)[C@]1(C)O` [Clarithromycin], the “% Phosphatase Activity (compared to DMSO) PRL-2” value on recombinant PRL-2 (setting [1]) amounted to 111%. Besides, at recombinant PRL-3 (setting [1]), the “% Phosphatase Activity (compared to DMSO) PRL-3” value turned out to be 86%.

Consider `O=C(NCCN1CCOCC1)c1ccc(Cl)cc1` [Moclobemide (Ro 111163)], for which, on recombinant PRL-2 (setting [1]), the “% Phosphatase Activity (compared to DMSO) PRL-2” value turned out to be 109%. Also, on recombinant PRL-3 (setting [1]), the “% Phosphatase Activity (compared to DMSO) PRL-3” value came out at 83%.

In the case of `CN(C)C/C=C/C(=O)Nc1cc2c(Nc3ccc(F)c(Cl)c3)ncnc2cc1O[C@H]1CCOC1` [Afatinib (BIBW2992)], the “% Phosphatase Activity (compared to DMSO) PRL-2” value at recombinant PRL-2 (setting [1]) amounted to 106%. The “% Phosphatase Activity (compared to DMSO) PRL-3” value on recombinant PRL-3 (setting [1]) stood at 85%.

For `CC(C)N(CCNC(=O)CN1CCCC1=O)C(C)C` [Pramiracetam], the “% Phosphatase Activity (compared to DMSO) PRL-2” value at recombinant PRL-2 (setting [1]) was 88%. On recombinant PRL-3 (setting [1]), the “% Phosphatase Activity (compared to DMSO) PRL-3” value is 88%.

On to `Cl.Cl.OCCOCCN1CCN(C(c2ccccc2)c2ccc(Cl)cc2)CC1` (stereo not shown) [Hydroxyzine 2HCl], for which, on recombinant PRL-2 (setting [1]), the “% Phosphatase Activity (compared to DMSO) PRL-2” value is reported as 103%. Also, on recombinant PRL-3 (setting [1]), the “% Phosphatase Activity (compared to DMSO) PRL-3” value amounted to 85%.

For the compound `C[N+](C)(C)CCCCCCCCCC[N+](C)(C)C` [Decamethonium Bromide], at recombinant PRL-2 (setting [1]), the “% Phosphatase Activity (compared to DMSO) PRL-2” value is 118%. The “% Phosphatase Activity (compared to DMSO) PRL-3” value on recombinant PRL-3 (setting [1]) is given as 71%.

On to Aprotinin, for which the “% Phosphatase Activity (compared to DMSO) PRL-2” value in the data set with recombinant PRL-2 (setting [1]) is reported as 90%.

With `Cc1c(-c2ccc(O)cc2)n(Cc2ccc(OCCN3CCCCCC3)cc2)c2ccc(O)cc12` [Bazedoxifene Acetate], the “% Phosphatase Activity (compared to DMSO) PRL-2” value on recombinant PRL-2 (setting [1]) stood at 106%.
